# ChEMBL document CHEMBL1201862, “PubChem BioAssay data set” (2004)
#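 All cell lines were grown in 96-well plates and treated with compound for 48 hours. Abbreviation: GI50, concentration required for 50% inhibition of growth.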 Activity calls are given as the source filed them. No stated cut-off is given here; in the data, active = GI50 up to about 1.1 µM and inactive = higher.
# How the values were obtained:
# Assay in all cases: NCI tumour cell line growth inhibition, 48 h
# 786-0 = system: 786-0
# A498 = system: A498
# A549 = system: A549
# ACHN = system: ACHN
# CAKI-1 = system: CAKI-1
# CCRF-CEM = system: CCRF-CEM
# COLO 205 = system: COLO 205
# DMS-114 = system: DMS-114
# DMS-273 = system: DMS-273
# EKVX = system: EKVX
# HCC 2998 = system: HCC 2998
# HCT-116 = system: HCT-116
# HCT-15 = system: HCT-15
# HL-60 = system: HL-60
# HOP-18 = system: HOP-18
# HOP-62 = system: HOP-62
# HOP-92 = system: HOP-92
# HT-29 = system: HT-29
# IGROV-1 = system: IGROV-1
# K562 = system: K562
# KM-20L2 = system: KM-20L2
# KM12 = system: KM12
# LXFL 529 = system: LXFL 529
# M14 = system: M14
# M19-MEL = system: M19-MEL
# MOLT-4 = system: MOLT-4
# Malme-3M = system: Malme-3M
# NCI-H226 = system: NCI-H226
# NCI-H23 = system: NCI-H23
# NCI-H460 = system: NCI-H460
# NCI-H522 = system: NCI-H522
# OVCAR-3 = system: OVCAR-3
# OVCAR-4 = system: OVCAR-4
# OVCAR-5 = system: OVCAR-5
# OVCAR-8 = system: OVCAR-8
# RPMI-8226 = system: RPMI-8226
# RXF 631 = system: RXF 631
# SF-268 = system: SF-268
# SF-295 = system: SF-295
# SF-539 = system: SF-539
# SK-MEL-28 = system: SK-MEL-28
# SK-MEL-2 = system: SK-MEL-2
# SK-MEL-5 = system: SK-MEL-5
# SK-OV-3 = system: SK-OV-3
# SN12C = system: SN12C
# SNB-19 = system: SNB-19
# SNB-75 = system: SNB-75
# SNB-78 = system: SNB-78
# SW-620 = system: SW-620
# TK-10 = system: TK-10
# U-251 = system: U-251
# UACC-257 = system: UACC-257
# UACC-62 = system: UACC-62
# UO-31 = system: UO-31
# XF498 = system: XF498
# DLD-1 = system: DLD-1
# RXF 393 = system: RXF 393
# SR = system: SR
compound,measurement,setting,value
Cc1ccc(-c2nc3ccccc3c(=O)n2NC2OC(CO)C(O)C(O)C2O)cc1 (configuration not stated),GI50,786-0,> 100 µM (inactive)
same,GI50,A498,> 100 µM (inactive)
same,GI50,A549,> 100 µM (inactive)
same,GI50,ACHN,> 100 µM (inactive)
same,GI50,CAKI-1,39.6 µM (inactive)
same,GI50,CCRF-CEM,> 100 µM (inactive)
same,GI50,COLO 205,> 100 µM (inactive)
same,GI50,DMS-114,> 100 µM (inactive)
same,GI50,DMS-273,> 100 µM (inactive)
same,GI50,EKVX,> 100 µM (inactive)
same,GI50,HCC 2998,> 100 µM (inactive)
same,GI50,HCT-116,> 100 µM (inactive)
same,GI50,HCT-15,> 100 µM
same,GI50,HL-60,> 100 µM (inactive)
same,GI50,HOP-18,> 100 µM (inactive)
same,GI50,HOP-62,> 100 µM (inactive)
same,GI50,HOP-92,> 100 µM (inactive)
same,GI50,HT-29,> 100 µM (inactive)
same,GI50,IGROV-1,> 100 µM (inactive)
same,GI50,K562,> 100 µM (inactive)
same,GI50,KM-20L2,> 100 µM (inactive)
same,GI50,KM12,> 100 µM (inactive)
same,GI50,LXFL 529,> 100 µM (inactive)
same,GI50,M14,> 100 µM (inactive)
same,GI50,M19-MEL,> 100 µM (inactive)
same,GI50,MOLT-4,> 100 µM (inactive)
same,GI50,Malme-3M,48.2 µM (inactive)
same,GI50,NCI-H226,> 100 µM (inactive)
same,GI50,NCI-H23,> 100 µM (inactive)
same,GI50,NCI-H460,> 100 µM (inactive)
same,GI50,NCI-H522,> 100 µM (inactive)
same,GI50,OVCAR-3,> 100 µM (inactive)
same,GI50,OVCAR-4,> 100 µM (inactive)
same,GI50,OVCAR-5,> 100 µM (inactive)
same,GI50,OVCAR-8,> 100 µM (inactive)
same,GI50,RPMI-8226,> 100 µM (inactive)
same,GI50,RXF 631,> 100 µM (inactive)
same,GI50,SF-268,> 100 µM (inactive)
same,GI50,SF-295,> 100 µM (inactive)
same,GI50,SF-539,> 100 µM (inactive)
same,GI50,SK-MEL-28,> 100 µM (inactive)
same,GI50,SK-MEL-2,> 100 µM (inactive)
same,GI50,SK-MEL-5,> 100 µM (inactive)
same,GI50,SK-OV-3,> 100 µM (inactive)
same,GI50,SN12C,> 100 µM (inactive)
same,GI50,SNB-19,> 100 µM (inactive)
same,GI50,SNB-75,> 100 µM (inactive)
same,GI50,SNB-78,> 100 µM (inactive)
same,GI50,SW-620,> 100 µM (inactive)
same,GI50,TK-10,> 100 µM (inactive)
same,GI50,U-251,> 100 µM (inactive)
same,GI50,UACC-257,> 100 µM (inactive)
same,GI50,UACC-62,> 100 µM (inactive)
same,GI50,UO-31,> 100 µM (inactive)
same,GI50,XF498,> 100 µM (inactive)
COc1ccc2ccccc2c1C1=NC(C)(C)CO1,GI50,786-0,> 100 µM (inactive)
same,GI50,A549,> 100 µM (inactive)
same,GI50,ACHN,> 100 µM (inactive)
same,GI50,CAKI-1,> 100 µM (inactive)
same,GI50,CCRF-CEM,> 100 µM (inactive)
same,GI50,COLO 205,> 100 µM (inactive)
same,GI50,DLD-1,> 100 µM (inactive)
same,GI50,EKVX,> 100 µM (inactive)
same,GI50,HCT-116,> 100 µM (inactive)
same,GI50,HCT-15,> 100 µM
same,GI50,HL-60,> 100 µM (inactive)
same,GI50,HOP-18,> 100 µM (inactive)
same,GI50,HOP-62,> 100 µM (inactive)
same,GI50,HOP-92,98.9 µM (inactive)
same,GI50,HT-29,> 100 µM (inactive)
same,GI50,IGROV-1,> 100 µM (inactive)
same,GI50,K562,> 100 µM (inactive)
same,GI50,KM-20L2,> 100 µM (inactive)
same,GI50,KM12,> 100 µM (inactive)
same,GI50,LXFL 529,> 100 µM (inactive)
same,GI50,M14,> 100 µM (inactive)
same,GI50,M19-MEL,> 100 µM (inactive)
same,GI50,MOLT-4,> 100 µM (inactive)
same,GI50,Malme-3M,> 100 µM (inactive)
same,GI50,NCI-H226,> 100 µM (inactive)
same,GI50,NCI-H23,> 100 µM (inactive)
same,GI50,NCI-H460,> 100 µM (inactive)
same,GI50,NCI-H522,> 100 µM (inactive)
same,GI50,OVCAR-3,> 100 µM (inactive)
same,GI50,OVCAR-4,> 100 µM (inactive)
same,GI50,OVCAR-8,> 100 µM (inactive)
same,GI50,RPMI-8226,> 100 µM (inactive)
same,GI50,RXF 393,> 100 µM (inactive)
same,GI50,RXF 631,> 100 µM (inactive)
same,GI50,SF-268,> 100 µM (inactive)
same,GI50,SF-295,> 100 µM (inactive)
same,GI50,SF-539,> 100 µM (inactive)
same,GI50,SK-MEL-28,> 100 µM (inactive)
same,GI50,SK-MEL-2,> 100 µM (inactive)
same,GI50,SK-MEL-5,> 100 µM (inactive)
same,GI50,SK-OV-3,> 100 µM (inactive)
same,GI50,SN12C,> 100 µM (inactive)
same,GI50,SNB-19,> 100 µM (inactive)
same,GI50,SNB-75,> 100 µM (inactive)
same,GI50,SR,> 100 µM (inactive)
same,GI50,SW-620,> 100 µM (inactive)
same,GI50,TK-10,> 100 µM (inactive)
same,GI50,U-251,> 100 µM (inactive)
same,GI50,UACC-257,> 100 µM (inactive)
same,GI50,UACC-62,> 100 µM (inactive)
same,GI50,UO-31,> 100 µM (inactive)
same,GI50,XF498,> 100 µM (inactive)
